From ChEMBL document CHEMBL1125013, “Quinazoline antifolate thymidylate synthase inhibitors: 2'-fluoro-N10-propargyl-5,8-dideazafolic acid and derivatives with modifications in the C2 position” (J Med Chem, 1990)

Columns and labels:
L1210 [1] = assay: Concentration required to inhibit 50% growth of L1210 mouse leukemia cells was determined; format: functional, cell-based
L1210 (1565) = assay: cells; format: functional, cell-based; settings: Mus musculus
Description: Concentration required to inhibit 50% growth of L1210 /1565 mutant mouse leukemia cell line was determined

L1210 (R7A) = assay: Concentration required to inhibit 50% growth of L1210 of R7A mutant mouse leukemia cell line was determined; format: functional, cell-based
L1210 [2] = assay: The inhibitory activity was determined on L1210 mouse leukemia cell in presence of thymidine; format: functional; set-up: scale not given: the % may be the effect or the level left
Thymidylate synthase = Thymidylate synthase (Mus musculus, UniProt P07607); assay: Concentration required to inhibit 50% activity of Thymidylate synthase was determined
Chain of Thymidylate synthase (P07607 whole entry): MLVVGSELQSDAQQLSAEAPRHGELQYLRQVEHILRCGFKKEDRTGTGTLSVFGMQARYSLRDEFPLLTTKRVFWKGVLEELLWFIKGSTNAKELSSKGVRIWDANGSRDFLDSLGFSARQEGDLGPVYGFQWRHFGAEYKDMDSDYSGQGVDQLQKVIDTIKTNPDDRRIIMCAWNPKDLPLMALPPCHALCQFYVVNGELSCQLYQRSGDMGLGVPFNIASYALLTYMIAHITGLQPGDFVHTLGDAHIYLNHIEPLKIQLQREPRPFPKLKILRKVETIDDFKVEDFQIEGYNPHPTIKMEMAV

Row | Structure (SMILES) | IC50 (L1210 [1]) [nM] | IC50 (L1210 (1565)) [nM] | IC50 (L1210 (R7A)) [nM] | IC50 (Thymidylate synthase) [nM] | Control (L1210 [2]) [%]
1 | C#CCN(Cc1ccc2nc(C)[nH]c(=O)c2c1)c1ccc(C(=O)N[C@@H](CCC(=O)O)C(=O)O)c(F)c1 | 27 | 2200 | 110 | 20 | 97
2 | C#CCN(Cc1ccc2[nH]c(N)nc(=O)c2c1)c1ccc(C(=O)N[C@@H](CCC(=O)O)C(=O)O)cc1 | 3500 | 3600 | 41000 | – | 96
3 | C#CCN(Cc1ccc2nc[nH]c(=O)c2c1)c1ccc(C(=O)N[C@@H](CCC(=O)O)C(=O)O)c(F)c1 | 290 | 1200 | 3800 | 58 | 84
4 | C#CCN(Cc1ccc2nc(C)[nH]c(=O)c2c1)c1ccc(C(=O)N[C@@H](CCC(=O)O)C(=O)O)cc1 | 85 | 8300 | 390 | – | 100

Further lines, with some results ahead:

Row | IC50 (L1210 [1]) [nM] | IC50 (L1210 (1565)) [nM] | IC50 (L1210 (R7A)) [nM] | IC50 (Thymidylate synthase) [nM] | Structure (SMILES) | Control (L1210 [2]) [%]
5 | 360 | 4100 | 7500 | – | C#CCN(Cc1ccc2nc[nH]c(=O)c2c1)c1ccc(C(=O)N[C@@H](CCC(=O)O)C(=O)O)cc1 | 100
6 | 1100 | 600 | 6200 | 9 | C#CCN(Cc1ccc2nc(N)[nH]c(=O)c2c1)c1ccc(C(=O)N[C@@H](CCC(=O)O)C(=O)O)c(F)c1 | 84
7 | 1900 | 6000 | – | – | C#CCN(Cc1ccc2nc(CO)[nH]c(=O)c2c1)c1ccc(C(=O)N[C@@H](CCC(=O)O)C(=O)O)c(F)c1 | 82
8 | 1000 | 45000 | – | 36 | C#CCN(Cc1ccc2nc(OC)[nH]c(=O)c2c1)c1ccc(C(=O)N[C@@H](CCC(=O)O)C(=O)O)c(F)c1 | 89
9 | 1900 | 160000 | 14000 | – | C#CCN(Cc1ccc2nc(OC)[nH]c(=O)c2c1)c1ccc(C(=O)N[C@@H](CCC(=O)O)C(=O)O)cc1 | 100
